Test results from paper PMC9826768, “New polychlorinated bibenzyls from Rhododendron minutiflorum” (Natural Products and Bioprospecting, 2023).

Legend:
α-glucosidase = α-glucosidase inhibitory activity (PNPG method); assay type: biochemical; details: mean ± SE; acarbose as positive control
Experimental: In order to evaluate the insecticidal activities of all the isolated compounds, their toxicities on D. citri Kuwayama were tested.
According to the previously reported method, all the isolated compounds were screened for α-glucosidase inhibitory activity.

[1] = tested on: Diaphorina citri Kuwayama; assay: Insecticidal activity (toxicity) against the Asian citrus psyllid; assay type: in vivo; details: for corrected mortality rate of citrus psyllid: 4th day after the test started, compound concentration higher than 50 mg/L; for LD50: against D. citri, during 6 days after treatment (calculated using observations on day 6), Probit analysis
Experimental: To avoid accidental injury, all the D. citri were carefully collected and cultured. The insecticidal activities of eight compounds were evaluated using methods described in the literature with slightly modified. […] Finally, mortality was calculated every 24 h starting on the second day of the trial.

Row | SMILES | IC50 (α-glucosidase) [µM] | corrected mortality rate of citrus psyllid [1] | LD50 [1] [mg/L]
1 | Oc1c(Cl)cc(CCc2c(Cl)cc(Cl)c(O)c2Cl)cc1Cl [Compound 1, 2,4,6,3′,5′-pentachloro-3,4′-dihydroxybibenzyl] | 82.8 ± 4.99 | – | –
2 | Oc1c(Cl)cc(CCc2ccc(Cl)c(O)c2Cl)cc1Cl [Compound 2, 2,4,3′,5′-tetrachloro-3,4′-dihydroxybibenzyl] | – | higher than 50% | 27.15
3 | Oc1cc(CCc2cc(Cl)c(O)c(Cl)c2)c(Cl)cc1Cl [Compound 3, 4,6,3′,5′-tetrachloro-3,4′-dihydroxybibenzyl] | 60.4 ± 1.54 | – | 48.50
4 | Oc1cc(CCc2cc(Cl)c(O)c(Cl)c2)ccc1Cl [Compound 4, 4,3′,5′-trichloro-3,4′-dihydroxybibenzyl] | 17.9 ± 0.74 | – | –
5 | COc1cc(CCc2cc(Cl)c(O)c(Cl)c2)ccc1Cl [Compound 5, 4,3′,5′-trichloro-4′-hydroxyl-3-methoxybibenzyl] | 62.7 ± 6.87 | higher than 50% | 17.02
6 | COc1cc(O)c(CCC(C)(C)O)c(CCc2ccccc2)c1 [Compound 6, 3-hydroxyl-5-methoxy-2-(3′-hydroxyl-3′-methylbutyl)-bibenzyl] | 76 ± 12 | higher than 50% | 16.20
7 | CC(C)=CCc1c(O)cc(O)cc1CCc1ccccc1 [Compound 7, 3,5-dihydroxyl-2-(3′-methyl-2′-butenyl)-bibenzyl] | 56.7 ± 1.42 | – | 48.64
8 | CC(C)=CCc1ccc(CCc2ccc(O)cc2)cc1O [Compound 8, 3,4″-dihydroxyl-4-(3′-methyl-2′-butenyl)-bibenzyl] | 65.4 ± 2.04 | – | –
9 | O=C1CCC[C@@H]2[C@H]3CCCN4CCC[C@@H](CN12)[C@@H]34 [Matrine, matrine, reference compound] | – | – | 11.86
